From PubChem BioAssay (NCI)
Values joined by “and” are separate entries in the source; they are usually repeats but may differ in a detail not shown here. Equal values may be shown once.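 Five concentrations, 48 hours, 96-well plates. GI50: concentration for 50% inhibition of growth. At the TGI there is no net growth.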

Columns and labels:
Assay in all cases: NCI anticancer screen, dose series, 48 h
[1] = test system: HT29 colon
[2] = test system: NCI-H460 lung
[3] = test system: COLO 205 colon
[4] = test system: SK-MEL-2 melanoma
[5] = test system: RXF 393 renal
[6] = test system: LOX IMVI melanoma
[7] = test system: A498 renal
[8] = test system: DU-145 prostate
[9] = test system: SR leukemia
[10] = test system: T-47D breast

Compound | GI50 [1] | TGI [1] | GI50 [2] [µM] | TGI [2] | GI50 [3] [µM] | TGI [3] | GI50 [4] | TGI [4] | GI50 [5] [µM] | TGI [5] | GI50 [6] [µM] | TGI [6] | GI50 [7] [µM] | TGI [7] | GI50 [8] [µM] | TGI [8] [µM] | TGI [9] [µM] | TGI [10] [µM] | GI50 [10] | GI50 [9] [µM]
CC(=O)[CH-]C(=O)c1ccccc1.CC(=O)[CH-]C(=O)c1ccccc1.CC[O-].O=C1C=C([O-])C(=O)c2ccccc21.[Ti+4] | 41 µM | > 100 µM | 71.9 | > 100 µM | 26.9 | > 100 µM | 9.07 µM | 86.3 µM | > 100 | > 100 µM | 20 | > 100 µM | 81.1 | > 100 µM | – | – | – | – | – | –
COC(=O)C1CCC(N2C(=O)CCC2C(=O)OC)=N1 (stereo not drawn) | – | > 100 µM | – | > 100 µM | – | > 100 µM | – | > 100 µM | – | – | – | > 100 µM | – | > 100 µM | – | – | – | – | – | –
CC(=O)Oc1cc(OC(C)=O)c2cc3c(cc2c1OC(C)=O)C(=O)C1(CCCC1)C3=O | – | 30 µM | – | 33.1 µM | – | 33.9 µM | – | – | – | 31.3 µM | – | 33.5 µM | – | – | – | – | – | – | – | –
CCCCCCCCCCCCCCCCCCOCC1(COP(=O)([O-])OCC[N+](C)(C)C)CCCO1 (stereo not drawn) | – | 12.4 µM | – | 3.23 µM | – | 3.63 µM | – | 22.8 µM | – | 1.89 µM | – | 19.3 µM | – | 11.8 µM | – | – | – | – | – | –
O=C(O)C1=C(Cl)c2ccccc2S1(=O)=O | – | – | – | > 100 µM | – | > 100 µM | – | > 100 µM | – | > 100 µM | – | > 100 µM | – | – | – | – | – | – | – | –
CC(=O)[CH-]C(=O)c1ccccc1.CC(=O)[CH-]C(=O)c1ccccc1.CC12CC3(C)CC(C)(C1)CC([O-])(C2)C3.CC[O-].[Ti+4] | 27 µM | > 100 µM | 16.8 | 46 µM | 19.4 | 40.2 µM | – | – | – | – | 13.2 | 31.1 µM | 21.3 | 44.5 µM | – | – | – | – | – | –
C#CCOc1cccc(Nc2ncnc3c2ncn3C2CCN(C(=O)CCl)C2)c1 (stereo not drawn) | 19.4 µM | 37.4 µM | 43.2 | > 100 µM | – | – | 25.7 µM | 94.9 µM | 17.1 | 36.6 µM | – | – | > 100 | > 100 µM | 19.8 | 37.5 | – | – | – | –
Cn1c(=O)c2[nH]cnc2n(CC(=O)O)c1=O | – | > 100 µM | – | > 100 µM | – | > 100 µM | – | > 100 µM | – | – | – | – | – | > 100 µM | – | – | > 100 | – | – | –
O/N=C1/C(=C/c2ccccc2)CCCC1C(NO)c1ccccc1 (stereo not drawn) | – | > 100 µM | – | > 100 µM | – | > 100 µM | – | > 100 µM | – | > 100 µM | – | > 100 µM | – | > 100 µM | – | – | – | – | – | –
CN(Cc1ccccc1)c1nc(=[N+](C)C)ss1 | – | > 100 µM | – | > 100 µM | – | – | – | > 100 µM | – | > 100 µM | – | > 100 µM | – | > 100 µM | – | – | > 100 | – | – | –
NC(=O)N/N=C1/CCCC/C1=C\c1ccccc1 | – | > 100 µM | – | > 100 µM | – | > 100 µM | – | > 100 µM | – | > 100 µM | – | > 100 µM | – | > 100 µM | – | – | > 100 | – | – | –
NC(=O)C12CCC1C1CCCCC12N1CCOCC1 (stereo not drawn) | – | > 100 µM | – | > 100 µM | – | – | – | > 100 µM | – | > 100 µM | – | > 100 µM | – | > 100 µM | – | – | > 100 | – | – | –
Cc1cccc(NC(=O)Cc2nc3ccccc3s2)c1C | – | > 100 µM | – | > 100 µM | – | > 100 µM | – | > 100 µM | – | > 100 µM | – | > 100 µM | – | > 100 µM | – | – | – | – | – | –
N#CNc1nc(C(=O)Nc2ccc(Cl)cc2)cc(-c2ccccc2)n1 | – | > 100 µM | – | – | – | – | – | > 100 µM | – | > 100 µM | – | – | – | > 100 µM | – | – | – | – | – | –
C=C(C)C(=O)N1c2ccc(OC)cc2CC1C(=O)OCC (stereo not drawn) | – | > 100 µM | – | > 100 µM | – | > 100 µM | – | > 100 µM | – | – | – | – | – | > 100 µM | – | > 100 | > 100 | > 100 | – | –
CC(C)(C)[Si](Nc1ccccc1)(c1ccccc1)c1ccccc1 | – | 28.7 µM | – | 37.7 µM | – | 29.4 µM | – | 35.8 µM | – | 26.5 µM | – | 26.1 µM | – | 31.3 µM | – | – | – | – | – | –
O=C(Nn1c2c(sc1=NC1CC1)C(=O)c1ccccc1C2=O)c1cc2ccc1CCc1ccc(cc1)CC2 | 3.32 µM | 28.7 µM | 3.35 | 12.2 µM | 3.36 | 12.7 µM | 2.47 µM | 7.25 µM | 1.85 | 4.75 µM | 0.966 | 2.62 µM | 20.7 | 63.4 µM | 1.85 | 3.43 | – | 14.4 | 2.49 µM | –
CN(C)NC(=S)NC12CC3CC(CC(C3)C1)C2 | – | > 100 µM | – | > 100 µM | – | > 100 µM | – | > 100 µM | – | > 100 µM | – | > 100 µM | – | > 100 µM | – | – | – | – | – | –
CO[C@@]12[C@H](COC(N)=O)C3=C(C(=O)C(C)=C(N)C3=O)N1C[C@@H]1N[C@@H]12 | 1.45 µM and 0.542 µM | 12.3 µM and 13 µM and 23.7 µM | – | 1.03 µM and 1.48 µM | 1.7 | 5.21 µM and 8.43 µM and 7.05 µM | 4.21 µM and 2.54 µM | 4.96 µM and 7.5 µM and 6.61 µM | 1.23 | 6.36 µM and 6.07 µM and 3.77 µM | 0.615 | 4.26 µM and 3.47 µM | 1.05 | 2.68 µM and 2.64 µM | – | – | – | – | 2.25 µM and 1.41 µM | 0.0345
CC(C)[C@H](O)C(=O)N[C@H]1Cc2ccc3c(c2)[C@]24C5=C(N=C(O5)[C@H](C(C)C)NC1=O)c1nc(Cl)c(o1)-c1c(Cl)[nH]c5cccc(c15)-c1cccc2c1N[C@H]4O3 | < 0.001 µM | 0.183 µM | < 0.001 | 1.21 µM | – | – | – | – | – | – | – | – | – | > 10 µM | < 0.001 | 0.748 | – | > 10 | – | –
C=C(CN(CCN1CCOCC1)CC(=C)c1ccc(C(=O)Nc2ccccc2N)cc1)c1ccc(C(=O)Nc2ccccc2N)cc1 | – | – | 8.72 | > 50 µM | 8.21 | 20.2 µM | 11.1 µM | > 50 µM | 11.9 | 23.6 µM | 1.07 | 6.47 µM | – | – | 6.88 | 15.7 | > 50 | 47.6 | 8.33 µM | 11.7
CCCCCC/C=C/CCCCCCCc1cccc(O)c1C(=O)O | – | > 100 µM | – | > 100 µM | – | > 100 µM | – | > 100 µM | – | – | – | > 100 µM | – | – | – | – | > 100 | – | – | –
O=C(Cc1nc2ccccc2s1)C(=O)Nc1ccc(Cl)cc1Cl | – | > 100 µM | – | > 100 µM | – | > 100 µM | – | > 100 µM | – | – | – | > 100 µM | – | – | – | – | > 100 | – | – | –
C[n+]1ccc2[nH]c3ccccc3c2c1 | – | > 100 µM | – | > 100 µM | – | > 100 µM | – | > 100 µM | – | > 100 µM | – | > 100 µM | – | > 100 µM | – | – | – | – | – | –
